Laboratory results: US9920063B2, “Melampomagnolide B derivatives” (Board of Trustees of the University of Arkansas, priority 2013, dated 2018)
Where two headings read alike, the source gives them in different places.

What was measured:
[1] = system: panel of 60 human cancer cell lines; assay: Screen against a panel of 60 human tumor cell lines (single dose and five dose), panel and sub-panel statements; format: cell-based
AML 052308 cells = assay: Antileukemic activity against AML 052308 cells in culture
Method: For each compound, in vitro cell culture studies were performed in which a range of concentrations (0.25-20 μM) was tested for cytotoxicity against leukemia cell lines, primary leukemia specimens and normal bone marrow controls.

Structure (SMILES): C=C1C(=O)O[C@H]2[C@H]1CC/C(COC(=O)c1cc3ccccc3[nH]1)=C\CC[C@@]1(C)O[C@@H]21 [BS-1-28]
- CC50 (NCI-H460): 7750 nM
- Percent Growth (NCI-H460; NCI-H460, Log10 Concentration −4.0): −75%
- Percent Growth (NCI-H460; NCI-H460, Log10 Concentration −5.0): −67%
- Percent Growth (NCI-H460; NCI-H460, Log10 Concentration −6.0): 86%
- Percent Growth (NCI-H460; NCI-H460, Log10 Concentration −7.0): 101%
- Percent Growth (NCI-H460; NCI-H460, Log10 Concentration −8.0): 166%
- GI50 (NCI-H460; NCI-H460, NCI five dose): 1730 nM
- TGI (NCI-H460; NCI-H460, NCI five dose): 3.66E−6
- CC50 (CAKI-1): 4820 nM
- Percent Growth (CAKI-1; CAKI-1, Log10 Concentration −4.0): −100%
- Percent Growth (CAKI-1; CAKI-1, Log10 Concentration −5.0): −99%
- Percent Growth (CAKI-1; CAKI-1, Log10 Concentration −6.0): 55%
- Percent Growth (CAKI-1; CAKI-1, Log10 Concentration −7.0): 90%
- Percent Growth (CAKI-1; CAKI-1, Log10 Concentration −8.0): 86%
- GI50 (CAKI-1; CAKI-1, NCI five dose): 1080 nM
- TGI (CAKI-1; CAKI-1, NCI five dose): 2.18E−6
- CC50 (HOP-92): 4660 nM
- Percent Growth (HOP-92; HOP-92, Log10 Concentration −4.0): −97%
- Percent Growth (HOP-92; HOP-92, Log10 Concentration −5.0): −91%
- Percent Growth (HOP-92; HOP-92, Log10 Concentration −6.0): 40%
- Percent Growth (HOP-92; HOP-92, Log10 Concentration −7.0): 71%
- Percent Growth (HOP-92; HOP-92, Log10 Concentration −8.0): 74%
- GI50 (HOP-92; HOP-92, NCI five dose): 480 nM
- TGI (HOP-92; HOP-92, NCI five dose): 2.02E−6
- CC50 (OVCAR-5): 8220 nM
- Percent Growth (OVCAR-5; OVCAR-5, Log10 Concentration −4.0): −88%
- Percent Growth (OVCAR-5; OVCAR-5, Log10 Concentration −5.0): −59%
- Percent Growth (OVCAR-5; OVCAR-5, Log10 Concentration −6.0): 57%
- Percent Growth (OVCAR-5; OVCAR-5, Log10 Concentration −7.0): 96%
- Percent Growth (OVCAR-5; OVCAR-5, Log10 Concentration −8.0): 85%
- GI50 (OVCAR-5; OVCAR-5, NCI five dose): 1140 nM
- TGI (OVCAR-5; OVCAR-5, NCI five dose): 3.07E−6
- CC50 (HCT-116): 841 nM
- Percent Growth (HCT-116; HCT-116, Log10 Concentration −4.0): −91%
- Percent Growth (HCT-116; HCT-116, Log10 Concentration −5.0): −94%
- Percent Growth (HCT-116; HCT-116, Log10 Concentration −6.0): −62%
- Percent Growth (HCT-116; HCT-116, Log10 Concentration −7.0): 96%
- Percent Growth (HCT-116; HCT-116, Log10 Concentration −8.0): 97%
- GI50 (HCT-116; HCT-116, NCI five dose): 196 nM
- TGI (HCT-116; HCT-116, NCI five dose): 4.06E−7
- CC50 (A549/ATCC): 59300 nM
- Percent Growth (A549/ATCC; A549/ATCC, Log10 Concentration −4.0): −53%
- Percent Growth (A549/ATCC; A549/ATCC, Log10 Concentration −5.0): −41%
- Percent Growth (A549/ATCC; A549/ATCC, Log10 Concentration −6.0): 92%
- Percent Growth (A549/ATCC; A549/ATCC, Log10 Concentration −7.0): 96%
- Percent Growth (A549/ATCC; A549/ATCC, Log10 Concentration −8.0): 91%
- GI50 (A549/ATCC; A549/ATCC, NCI five dose): 2060 nM
- TGI (A549/ATCC; A549/ATCC, NCI five dose): 4.90E−6
- CC50 (MCF7): 6690 nM
- Percent Growth (MCF7; MCF7, Log10 Concentration −4.0): −56%
- Percent Growth (MCF7; MCF7, Log10 Concentration −5.0): −63%
- Percent Growth (MCF7; MCF7, Log10 Concentration −6.0): 11%
- Percent Growth (MCF7; MCF7, Log10 Concentration −7.0): 88%
- Percent Growth (MCF7; MCF7, Log10 Concentration −8.0): 63%
- GI50 (MCF7; MCF7, NCI five dose): 302 nM
- TGI (MCF7; MCF7, NCI five dose): 1.39E−6
- Growth inhibition, five dose screening ([1]; CCRF-CEM, HL-60 (TB), K-562, RPMI-8226, HOP-92, NCI-H522, HCT-116, HCT-15, SW-620, LOX IMVI, M14, MDA-MB-435, 786-0, ACHN, UO-31): potent nanomolar growth inhibition
- Anticancer activity, five dose screening ([1]; melanoma, leukemia, colon, CNS, breast, ovarian, non-small cell lung, renal, and prostate cancers): remarkable anticancer activity
- Outcome of initial single dose screening ([1]; single concentration 10^−5 M, more than 60% growth inhibition in at least eight cell lines of the panel): selected for five dose screening
- CC50 (HCC-2998): 8770 nM
- Percent Growth (HCC-2998; HCC-2998, Log10 Concentration −4.0): −84%
- Percent Growth (HCC-2998; HCC-2998, Log10 Concentration −5.0): −59%
- Percent Growth (HCC-2998; HCC-2998, Log10 Concentration −6.0): 104%
- Percent Growth (HCC-2998; HCC-2998, Log10 Concentration −7.0): 104%
- Percent Growth (HCC-2998; HCC-2998, Log10 Concentration −8.0): 103%
- GI50 (HCC-2998; HCC-2998, NCI five dose): 2140 nM
- TGI (HCC-2998; HCC-2998, NCI five dose): 4.33E−6
- Percent Growth (HL-60(TB); Log10 Concentration −4.0): −57%
- Percent Growth (HL-60(TB); Log10 Concentration −5.0): −17%
- Percent Growth (HL-60(TB); Log10 Concentration −6.0): 28%
- Percent Growth (HL-60(TB); Log10 Concentration −7.0): 112%
- Percent Growth (HL-60(TB); Log10 Concentration −8.0): 114%
- GI50 (HL-60(TB); NCI five dose): 546 nM
- TGI (HL-60(TB); NCI five dose): 4.15E−6
- CC50 (HL-60(TB); read-out: LC50, NCI five dose): 65800 nM
- Fold more potent than parthenolide (AML 052308 cells; AML 052308 cells): around 3 fold
- EC50 (AML 052308 cells; AML 052308 cells in culture): 2200 nM
- CC50 (DU-145): 5200 nM
- Percent Growth (DU-145; DU-145, Log10 Concentration −4.0): −98%
- Percent Growth (DU-145; DU-145, Log10 Concentration −5.0): −95%
- Percent Growth (DU-145; DU-145, Log10 Concentration −6.0): 63%
- Percent Growth (DU-145; DU-145, Log10 Concentration −7.0): 98%
- Percent Growth (DU-145; DU-145, Log10 Concentration −8.0): 91%
- GI50 (DU-145; DU-145, NCI five dose): 1210 nM
- TGI (DU-145; DU-145, NCI five dose): 2.51E−6
- CC50 (TK-10): 5390 nM
- Percent Growth (TK-10; TK-10, Log10 Concentration −4.0): −98%
- Percent Growth (TK-10; TK-10, Log10 Concentration −5.0): −96%
- Percent Growth (TK-10; TK-10, Log10 Concentration −6.0): 74%
- Percent Growth (TK-10; TK-10, Log10 Concentration −7.0): 117%
- Percent Growth (TK-10; TK-10, Log10 Concentration −8.0): 95%
- GI50 (TK-10; TK-10, NCI five dose): 1390 nM
- TGI (TK-10; TK-10, NCI five dose): 2.73E−6
- CC50 (K-562): > 100000 nM
- Percent Growth (K-562; K-562, Log10 Concentration −4.0): −24%
- Percent Growth (K-562; K-562, Log10 Concentration −5.0): −1%
- Percent Growth (K-562; K-562, Log10 Concentration −6.0): 5%
- Percent Growth (K-562; K-562, Log10 Concentration −7.0): 98%
- Percent Growth (K-562; K-562, Log10 Concentration −8.0): 100%
- GI50 (K-562; K-562, NCI five dose): 327 nM
- TGI (K-562; K-562, NCI five dose): 5.79E−6
- CC50 (PC-3): 6450 nM
- Percent Growth (PC-3; PC-3, Log10 Concentration −4.0): −94%
- Percent Growth (PC-3; PC-3, Log10 Concentration −5.0): −79%
- Percent Growth (PC-3; PC-3, Log10 Concentration −6.0): 73%
- Percent Growth (PC-3; PC-3, Log10 Concentration −7.0): 87%
- Percent Growth (PC-3; PC-3, Log10 Concentration −8.0): 88%
- GI50 (PC-3; PC-3, NCI five dose): 1420 nM
- TGI (PC-3; PC-3, NCI five dose): 3.62E−4
- CC50 (HS 57BT): > 100000 nM
- Percent Growth (HS 57BT; HS 57BT, Log10 Concentration −4.0): −20%
- Percent Growth (HS 57BT; HS 57BT, Log10 Concentration −5.0): −5%
- Percent Growth (HS 57BT; HS 57BT, Log10 Concentration −6.0): 78%
- Percent Growth (HS 57BT; HS 57BT, Log10 Concentration −7.0): 84%
- Percent Growth (HS 57BT; HS 57BT, Log10 Concentration −8.0): 47%
- TGI (HS 57BT; HS 57BT, NCI five dose): 8.71E−6
- CC50 (SF-295): 12000 nM
- Percent Growth (SF-295; SF-295, Log10 Concentration −4.0): −95%
- Percent Growth (SF-295; SF-295, Log10 Concentration −5.0): .46%
- Percent Growth (SF-295; SF-295, Log10 Concentration −6.0): 79%
- Percent Growth (SF-295; SF-295, Log10 Concentration −7.0): 89%
- Percent Growth (SF-295; SF-295, Log10 Concentration −8.0): 85%
- GI50 (SF-295; SF-295, NCI five dose): 1710 nM
- TGI (SF-295; SF-295, NCI five dose): 4.28E−6
- CC50 (SF-268): 6500 nM
- Percent Growth (SF-268; SF-268, Log10 Concentration −4.0): −85%
- Percent Growth (SF-268; SF-268, Log10 Concentration −5.0): −81%
- Percent Growth (SF-268; SF-268, Log10 Concentration −6.0): 83%
- Percent Growth (SF-268; SF-268, Log10 Concentration −7.0): 96%
- Percent Growth (SF-268; SF-268, Log10 Concentration −8.0): 98%
- GI50 (SF-268; SF-268, NCI five dose): 1590 nM
- TGI (SF-268; SF-268, NCI five dose): 3.22E−6
